According to patent US20240384268A1, “Oligonucleotides” (Hudson Institute of Medical Research, priority 2021, published 2024):

Biological target: T1, TLR8 (Homo sapiens, UniProt Q9NR97)
T1 sequence (Q9NR97 27-1041): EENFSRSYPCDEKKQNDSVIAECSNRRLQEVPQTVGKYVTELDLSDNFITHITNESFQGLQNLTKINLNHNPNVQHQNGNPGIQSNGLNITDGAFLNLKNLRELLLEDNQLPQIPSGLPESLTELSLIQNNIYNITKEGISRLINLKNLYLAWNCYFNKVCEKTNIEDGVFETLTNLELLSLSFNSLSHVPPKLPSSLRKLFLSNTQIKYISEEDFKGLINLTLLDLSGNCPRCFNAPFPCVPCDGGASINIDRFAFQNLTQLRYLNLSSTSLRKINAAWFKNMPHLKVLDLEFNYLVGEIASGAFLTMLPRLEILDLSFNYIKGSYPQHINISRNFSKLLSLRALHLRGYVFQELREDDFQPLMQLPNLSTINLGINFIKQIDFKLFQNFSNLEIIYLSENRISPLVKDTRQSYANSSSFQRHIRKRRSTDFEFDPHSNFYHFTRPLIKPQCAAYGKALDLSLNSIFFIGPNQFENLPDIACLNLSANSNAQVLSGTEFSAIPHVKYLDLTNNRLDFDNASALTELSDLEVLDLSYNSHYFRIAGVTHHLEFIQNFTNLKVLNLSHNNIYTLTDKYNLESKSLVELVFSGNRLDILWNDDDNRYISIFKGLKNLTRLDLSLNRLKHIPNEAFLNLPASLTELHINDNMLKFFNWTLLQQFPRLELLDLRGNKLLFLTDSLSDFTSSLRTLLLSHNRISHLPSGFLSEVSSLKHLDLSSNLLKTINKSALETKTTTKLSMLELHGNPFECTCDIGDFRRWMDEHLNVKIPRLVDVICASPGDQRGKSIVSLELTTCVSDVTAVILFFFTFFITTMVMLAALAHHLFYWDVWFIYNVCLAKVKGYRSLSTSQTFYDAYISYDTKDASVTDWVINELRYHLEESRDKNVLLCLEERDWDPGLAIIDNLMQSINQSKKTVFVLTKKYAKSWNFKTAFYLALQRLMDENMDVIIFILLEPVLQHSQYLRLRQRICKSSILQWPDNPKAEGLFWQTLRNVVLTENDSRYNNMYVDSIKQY
Experiment: HEK-TLR8 NF-κB-luciferase reporter, R848 or Motolimod stimulation (potentiation or inhibition)
Type: cell-based
Design: expressed in transfected cells; host or cells: 293XLhTLR8 (HEK293)
Details: averaged NF-κB-Luciferase relative to R848 condition (fold increase); for TLR8 100 nM: MOE-modified ASO at 100 nM; for TLR8 500 nM: MOE-modified ASO at 500 nM

| Sequence | TLR8 100 nM | TLR8 500 nM |
| --- | --- | --- |
| ACTGACTGTCTTGAGGGTTC (antisense; 2'-MOE modified, pattern not given here) [MB21D1-1483 MOE] | 2.454 | 3.185 |
| ATGTCCCCTGTTGACTGGTC (antisense; 2'-MOE modified, pattern not given here) [HPRT-489 MOE] | 1.752 | 2.118 |
| GAGGTCTTGGCTTCGTGGAG (antisense; 2'-MOE modified, pattern not given here) [MB21D1-523 MOE] | 1.822 | 2.164 |
| GATGGCCTCCCATCTCCTTC (antisense; 2'-MOE modified, pattern not given here) [HPRT-329 MOE] | 0.979 | 1.698 |
| TTCTGCAGCTTCCTTGTCCT (antisense; 2'-MOE modified, pattern not given here) [CTNN2B-2136 MOE] | 2.049 | 2.408 |
| TAGTCAAGGGCATATCCTAC (antisense; 2'-MOE modified, pattern not given here) [HPRT-732 MOE] | 1.457 | 2.087 |
| GCCGCTTTTCTGTCTGGTTC (antisense; 2'-MOE modified, pattern not given here) [CTNN2B-311 MOE] | 0.968 | 0.369 |
| TTGCCATGCTGGCTCGGACT (antisense; 2'-MOE modified, pattern not given here) [CAMSAP1-2584 MOE] | 0.881 | 0.572 |
| TGTGATGGCCTCCCATCTCC (antisense; 2'-MOE modified, pattern not given here) [HPRT-332 MOE] | 0.940 | 0.938 |
| GGTGGTCCACAACCCCTTTC (antisense; 2'-MOE modified, pattern not given here) [MB21D1-697 MOE] | 2.121 | 3.700 |
| ACAACCCCTTTCACCATCCC (antisense; 2'-MOE modified, pattern not given here) [MB21D1-689 MOE] | 8.841 | 14.808 |
| ACCCACTTGGCAGACCATCA (antisense; 2'-MOE modified, pattern not given here) [CTNN2B-1575 MOE] | 2.822 | 3.985 |
| ATGTCCCGCCACTGGATGCT (antisense; 2'-MOE modified, pattern not given here) [EGFR-727 MOE] | 2.029 | 1.708 |
| ATCCAACACTTCGTGGGGTC (antisense; 2'-MOE modified, pattern not given here) [HPRT-668 MOE] | 1.437 | 1.519 |
| TCGCACTTCAGTCTGAGCAG (antisense; 2'-MOE modified, pattern not given here) [MB21D1-719 MOE] | 1.697 | 2.158 |
| CTTACTTTCCGAGGTGTCCA (antisense; 2'-MOE modified, pattern not given here) [CAMSAP1-1739 MOE] | 3.892 | 4.827 |
| GTGTCCTTGCACGTGGCTTC (antisense; 2'-MOE modified, pattern not given here) [EGFR-1015 MOE] | 1.383 | 1.274 |
| TGTCCTTGCACGTGGCTTCG (antisense; 2'-MOE modified, pattern not given here) [EGFR-1014 MOE] | 1.187 | 1.433 |
| TTGCACACTTCGTACCCAAA (antisense; 2'-MOE modified, pattern not given here) [CAMSAP1-4915 MOE] | 1.555 | 1.972 |

| Sequence | TLR8 100 nM | TLR8 500 nM |
| --- | --- | --- |
| TGTCTTCATCGGCCCTGCCT (antisense; 2'-MOE modified, pattern not given here) [CAMSAP1-2112 MOE] | 1.331 | 1.178 |
| CTCTTGAAGCATCGTATCAC (antisense; 2'-MOE modified, pattern not given here) [CTNN2B-3648 MOE] | 1.650 | 2.200 |
| TTGGCTCGGCTTGCCTACTT (antisense; 2'-MOE modified, pattern not given here) [CAMSAP1-5594 MOE] | 1.096 | 0.813 |
| TAGGCACTTTGCCTCCTTCT (antisense; 2'-MOE modified, pattern not given here) [EGFR-2859 MOE] | 0.773 | 0.884 |
| ACAGTGTTGAGATACTCGGG (antisense; 2'-MOE modified, pattern not given here) [EGFR-3652 MOE] | 5.681 | 8.261 |
| CGTGTCTGGAAGCTTCCTTT (antisense; 2'-MOE modified, pattern not given here) [CTNN2B-808 MOE] | 1.476 | 1.222 |
| GGCATCCACCACGTCGTCCA (antisense; 2'-MOE modified, pattern not given here) [EGFR-3266 MOE] | 1.619 | 1.566 |
| CACCCACTTGGCAGACCATC (antisense; 2'-MOE modified, pattern not given here) [CTNN2B-1576 MOE] | 1.440 | 1.502 |
| GGAGCTTCGAGGCCCCAGGC (MOE modified, pattern not given here) [MB21D1-616 MOE] | 0.760 | 0.380 |
| GAACCACGTCTGCTCTAACA (antisense; 2'-MOE modified, pattern not given here) [CAMSAP1-1635 MOE] | 2.787 | 3.827 |
| AATCCGCCCAAAGGGAACTG (antisense; 2'-MOE modified, pattern not given here) [HPRT-1027 MOE] | 2.685 | 4.659 |
| CAGATAGCACCTTCAGCACT (antisense; 2'-MOE modified, pattern not given here) [CTNN2B-1294 MOE] | 1.773 | 2.356 |
| TCCAACACTTCGTGGGGTCC (antisense; 2'-MOE modified, pattern not given here) [HPRT-667 MOE] | 1.142 | 1.432 |
| CAAGGCCCTTCGCACTTCTT (antisense; 2'-MOE modified, pattern not given here) [EGFR-1225 MOE] | 1.115 | 1.236 |
| GCTTCAGGCGCTGCCTTGCC (antisense; 2'-MOE modified, pattern not given here) [CAMSAP1-2709 MOE] | 0.985 | 0.620 |
| GGTCCATACCCAAGGCATCC (antisense; 2'-MOE modified, pattern not given here) [CTNN2B-2446 MOE] | 1.901 | 2.107 |
| GCGTATTATAGCCGATTAAC (antisense; 2'-MOE modified, pattern not given here) [NC1 2′MOE] | 1.883 | 2.777 |
| GATGCTCCTCGGTCTCCCTT (antisense; 2'-MOE modified, pattern not given here) [CAMSAP1-1850 MOE] | 1.392 | 1.954 |
